Data on two molecules can be found in patent US20180074053A1 (priority 2016, published 2018).

Where two headings read alike, the source gives them in different places. Non-standard residues stand in square brackets, D forms with d. No end group written: not given here.

In one assay the test system is STC-1 cells. Nature of the assay: GLP-1 secretion from STC-1 cells (ELISA). The assay is classed as cell-based, mouse. The note with it: 2 hours, DMEM without serum and glucose; FIG. 3. The protocol: The pathways and sites of action of H89 and U73122 are graphically represented in FIG. 2.
Supernatants were collected for GLP-1 measurement. and the GLP-1 concentration was measured using a total GLP-1 (7-36 and 9-36) ELISA kit according to manufacturer's instruction (Alpco. Salem, N.H.).
On the technique in general: An ELISA detects its analyte on a solid surface through an enzyme-linked reagent.

A further assay deals with NK2 (Homo sapiens, UniProt P21452). Nature of the assay: cell-based. The procedure:
(§1) The platform uses ChemiScreen GPCR stable cell lines that are used for real-time calcium flux assays to rapidly, screen a spectrum of GPCRs. […] Percentage activation values were determined upon initial addition of compound(s). Percentage activation and inhibition values were determined for each GPCR relative to the reference compounds.
(§2) Assays were performed according to the manufacturer's instructions. […] The assay plate was read by the FLIPR TETRA® (Molecular Devices, Sunnyvale, Calif.). All assay plate data were subjected to appropriate baseline corrections and the maximum fluorescence values were processed to calculate percentage activation (relative to ECmax reference agonist and vehicle control values).

The target in another assay is GPCR40 (Homo sapiens, UniProt O14842). Nature of the assay: cell-based. The procedure:
as §1, §2

In assay [1] the target is MAS-related G-protein-coupled receptor member D (MRGD) (human, UniProt Q8TDS7 1-321). As to the kind of experiment: cell-based or functional assay.
[2] abbreviates: read-out: percent activation compared to standards, DT-110 @ 1.25 mM, Avg.
Where [3] appears, read: read-out: percent activation compared to standards, DT-110 @ 1.25 mM, n1.
[4] abbreviates: read-out: percent activation compared to standards, DT-110 @ 1.25 mM, n2.
[5] abbreviates: read-out: percent activation compared to standards, DT-110 @ 12.5 mM, Avg.
The mark [6] stands for this setting: read-out: percent activation compared to standards, DT-110 @ 12.5 mM, n1.
Where [7] appears, read: read-out: percent activation compared to standards, DT-110 @ 12.5 mM, n2.

GPCR40, sequence (O14842 whole entry): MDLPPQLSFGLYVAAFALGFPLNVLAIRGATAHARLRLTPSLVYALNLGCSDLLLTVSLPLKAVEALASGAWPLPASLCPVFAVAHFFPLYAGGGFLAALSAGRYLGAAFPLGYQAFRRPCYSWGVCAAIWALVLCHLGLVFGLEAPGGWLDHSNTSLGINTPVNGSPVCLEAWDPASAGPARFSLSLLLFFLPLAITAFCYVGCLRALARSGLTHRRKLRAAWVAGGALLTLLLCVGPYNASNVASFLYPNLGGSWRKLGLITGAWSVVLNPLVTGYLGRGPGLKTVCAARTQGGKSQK
MAS-related G-protein-coupled receptor member D (MRGD), sequence (Q8TDS7 whole entry): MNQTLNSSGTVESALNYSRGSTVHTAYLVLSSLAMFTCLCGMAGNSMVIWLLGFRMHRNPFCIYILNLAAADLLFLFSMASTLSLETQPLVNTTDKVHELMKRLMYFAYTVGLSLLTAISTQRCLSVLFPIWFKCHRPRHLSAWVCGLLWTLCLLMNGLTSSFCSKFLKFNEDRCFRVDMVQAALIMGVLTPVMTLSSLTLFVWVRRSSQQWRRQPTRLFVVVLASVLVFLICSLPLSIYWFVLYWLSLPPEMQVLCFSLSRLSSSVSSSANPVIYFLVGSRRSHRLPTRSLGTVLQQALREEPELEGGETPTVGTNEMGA
NK2, sequence (P21452 whole entry): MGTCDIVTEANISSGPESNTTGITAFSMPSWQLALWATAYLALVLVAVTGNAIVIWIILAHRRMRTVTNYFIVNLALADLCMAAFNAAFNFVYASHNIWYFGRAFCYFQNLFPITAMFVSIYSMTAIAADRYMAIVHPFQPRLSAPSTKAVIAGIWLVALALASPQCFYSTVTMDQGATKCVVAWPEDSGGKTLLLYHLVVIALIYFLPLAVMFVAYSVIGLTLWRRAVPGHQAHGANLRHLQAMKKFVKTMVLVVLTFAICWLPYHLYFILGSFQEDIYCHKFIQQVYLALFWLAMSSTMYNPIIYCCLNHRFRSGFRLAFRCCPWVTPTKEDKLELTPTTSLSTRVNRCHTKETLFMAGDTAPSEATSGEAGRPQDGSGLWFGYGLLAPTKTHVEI

As for `CC(C)C[C@@H](NC(=O)CNC(=O)CN)C(=O)O`, the “release of GLP-1 by STC-1 cells” value in the assay on STC-1 cells was “stimulated significant release of GLP-1”. For the same molecule, the activation at 1250 µM on NK2 (setting [2]) is -9.5%; on NK2 (setting [3]), -9.4%; at NK2 (setting [4]), -9.6%; on GPCR40 (setting [2]) it was -9.5%; at GPCR40 (setting [3]), -9.3%; at GPCR40 (setting [4]), -9.6%. Moreover, the activation at 12500 µM at NK2 (setting [5]) was -9.6%; at NK2 (setting [6]) it was -9.5%; at NK2 (setting [7]), -9.7%; on GPCR40 (setting [5]), 50.2%; at GPCR40 (setting [6]), 55.9%; at GPCR40 (setting [7]), 44.5%.

B1: DT-110, tripeptide glycine-glycine-D-leucine (GGdL) (peptide)
peptide: Gly-Gly-[dL]
On to B1, for which, in assay [1], the “EC50, calcium mobilization in MRGD cells (FIG. 12)” value is roughly 360 µM; the “EC50, calcium mobilization in MRGD over-expressing cells (FIG. 5)” value turned out to be 76 µM; the “EC50, calcium mobilization in the MRGD cell line (FIG. 8)” value came to 161 µM.
